Data reported in paper PMC5164911, “Comparative Analysis of the Interaction between Different Flavonoids and PDIA3” (Oxidative Medicine and Cellular Longevity, 2016).

Columns and labels:
[1] = target: T1, PDIA3 (Homo sapiens, UniProt P30101); assay: Fluorescence quenching titration of PDIA3 intrinsic fluorescence; assay type: binding; details: for Stern-Volmer constant (K SV): 0.5∗10^−6 M PDIA3 in reduced conditions, pH 7.4, 25°C, flavonoid 0 to 10∗10^−6 M, mean and standard deviation; for bimolecular quenching rate constant (K q): K SV = K q τ0 with τ0 of the order of 10^−8 s; for bimolecular quenching rate constant (K q) / Kd / binding constant (K b): reduced PDIA3, pH 7.4, 25°C; for Kd: K d = 1/K b, read-out: dissociation constant (K d); for binding constant (K b): equation of Bi et al., reiterative calculation of Sun et al.
T1 construct: made in house; host or cells: E. coli BL21 (vector pET21)
T1 sequence (P30101 25-505): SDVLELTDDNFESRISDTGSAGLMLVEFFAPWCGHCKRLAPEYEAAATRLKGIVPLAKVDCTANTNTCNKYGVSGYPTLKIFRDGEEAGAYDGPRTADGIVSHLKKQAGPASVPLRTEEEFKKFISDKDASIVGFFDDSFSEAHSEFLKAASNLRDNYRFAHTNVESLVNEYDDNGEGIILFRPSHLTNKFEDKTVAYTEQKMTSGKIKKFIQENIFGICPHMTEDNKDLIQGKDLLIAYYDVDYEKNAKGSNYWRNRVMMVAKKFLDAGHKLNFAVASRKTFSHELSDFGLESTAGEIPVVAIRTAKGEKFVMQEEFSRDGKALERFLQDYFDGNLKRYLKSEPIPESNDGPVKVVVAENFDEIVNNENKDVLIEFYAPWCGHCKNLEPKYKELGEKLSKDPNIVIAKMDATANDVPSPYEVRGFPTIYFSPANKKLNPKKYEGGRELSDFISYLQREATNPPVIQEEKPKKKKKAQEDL
Description: Quantitative analysis of the interaction between individual flavonoids and PDIA3 was performed by fluorimetric titration. […] Briefly, solution of PDIA3 (0.5 μM) or a and a′ domains (1 μM) in phosphate buffered saline (PBS) containing DTT 0.1 mM and EDTA 0.2 mM were titrated in quartz cuvette by stepwise additions, at 5 min time intervals, of individual flavonoid solution (1 mM in PBS/ethanol 50 : 50 v/v freshly prepared from a 20 mM stock solution in DMSO). […] To minimize the inner-filter effect we limited the highest concentration reached in the titration test up to 10 μM. All experiments were carried out at 25°C. Each spectrum was the mean of three repeated scans. Fluorescence spectra of appropriate blanks (flavonoids without proteins) were recorded under the same experimental conditions and subtracted from the corresponding flavonoid-protein system to correct the fluorescence background.
Quenching analysis was performed on PDIA3 (0.5 μM), in the reduced form, by adding stepwise increasing concentration of each molecule and recording the protein fluorescence spectra. For some flavonoids the analysis was extended to isolate a′ domain (1 μM), always in the reduced form. […] For each ligand molecule the Stern-Volmer quenching constant was obtained by linear regression of plots of F 0/F versus [L].
The Stern-Volmer quenching constant may be expressed as K SV = K q τ 0, where K q is the quencher rate coefficient and τ 0 is the average lifetime of the emissive excited state of the protein in the absence of the quencher.
The number of binding sites (n) and the binding constant (K b) were obtained by plotting log((F 0 − F)/F) versus log(1/([L t] − n(F 0 − F)[P t]/F 0)) using the reiterative calculation process described by Sun et al., assuming a similar affinity for each binding site.

[2] = target: T1, PDIA3; assay: Differential scanning fluorimetry (thermal stability, SYPRO Orange); assay type: binding; details: for Increase in melting temperature (T m) of PDIA3: 50 μM flavonoid, reduced PDIA3 1 μM; for Effect on PDIA3 stability (T m): flavonoid up to 50 μM, mainly at the highest concentration
Description: Protein stability was tested by the fluorescence-based thermal stability assay or differential scanning fluorimetry (DSF) developed by Pantoliano and coworkers. DSF records the fluorescence emission signal from the binding of a dye (SYPRO orange) to the exposed hydrophobic patches upon protein unfolding. Fluorescence measurements were performed using a CFX96 Connect RT-PCR instrument (BioRad). 18 μl aliquots of protein solution (1 μM), freshly diluted in Tris Buffered saline (50 mM TrisHCl, pH 8.0, 150 mM NaCl) containing 0.1 mM DTT, 0.2 mM EDTA, and 1 : 1000 dilution of SYPRO Orange (50 mM stock solution in DMSO), were distributed in a 96-well plate. Sample wells were addition of increasing concentration (up to 50 μM) of individual flavonoid by adding 2 μl of 10-fold concentrated stock solutions freshly prepared. As control, the protein solution was added with 2 μl of the dilution buffer. A melting point analysis was recorded increasing the temperature from 20 to 95°C with an increment of 0.5°C and reading, at each temperature, the fluorescence in fluorescence resonance energy transfer mode (FRET). Each measure was the average of three sample wells reading and each DSF experiment was repeated at least three times. To calculate T m values, DSF data from the melting curve were exported and fitted to Boltzman equation using GraphPad software. Effect of flavonoids was evaluated comparing the T m values in presence and absence of each molecule.

[3] = target: T1, PDIA3; assay: Disulfide reductase activity with DiE-GSSG fluorogenic probe; assay type: biochemical; details: DiE-GSSG substrate; for Inhibition of disulfide reductase (redox) activity: 20 μM flavonoid (Figure 7)
Description: Disulfide reductase activity of ERp57 was monitored by sensitive fluorescent assay using dieosin glutathione disulfide (DiE-GSSG) as fluorogenic probe. DiE-GSSG was synthesized by the reaction of eosin isothiocyanate with oxidized glutathione (GSSG) according to the method of Raturi and Mutus with some modifications. DiE-GSSG concentration was determined spectrophotometrically (ℇ 525 = 88,000 M^-1 cm^−1). Disulfide reductase activity was assayed in a reaction buffer containing 2 mM EDTA, 150 nM DiE-GSSG, and 5 μM DTT in PBS. A 20 μl aliquot of a stock solution of PDIA3 (1 μM) was added to the reaction mixture and DiE-GSSG reduction was monitored at 545 nm with excitation at 520 nm, at 25°C with continuous stirring. Reductase activity was calculated as the initial velocity in fluorescence increase. To test the effect of flavonoids on PDIA3 activity, the protein stock solution was previously incubated for 15 minutes at room temperature with different concentrations of each flavonoid and then a 20 μl aliquot subjected to assay in a reaction buffer containing the same concentration of the flavonoid.
Fluorescence quenching constant (K SV) values were given as means ± standard deviation and values of disulfide reductase activity were expressed in % of control sample ± relative standard deviation. All measurements were performed at least three times. Dunnett's test was used to compare the obtained reductase activity data with the activity of the untreated protein and a p value of <0.01 was considered as statistically significant.

SMILES	Stern-Volmer constant (K SV) [1] [M⁻¹]	bimolecular quenching rate constant (K q) [1] [M⁻¹ s⁻¹]	Kd [1] [µM]	binding constant (K b) [1] [M⁻¹]	Increase in melting temperature (T m) of PDIA3 [2]	Effect on PDIA3 stability (T m) [2]	Inhibition of disulfide reductase (redox) activity [3]	Effect on disulfide reductase activity (in words) [3]
O=C1C[C@@H](c2ccc(O)cc2)Oc2cc(O)cc(O)c21 [Naringenin, naringenin]	16900 ± 352	1.69e+12	57.8	17300	–	–	–	–
COc1ccc(-c2cc(=O)c3cc(OC)ccc3o2)c(OC)c1 [Trimethoxyflavone, 6,2′,4′-trimethoxyflavone]	22209 ± 484	2.22e+12	55.2	–	–	–	–	–
O=c1c(O[C@@H]2O[C@H](CO)[C@@H](O)[C@H](O)[C@H]2O)c(-c2ccc(O)c(O)c2)oc2cc(O)cc(O)c12 [Isoquercetin, isoquercetin]	25738 ± 367	2.57e+12	34.4	29100	–	–	–	–
C[C@@H]1O[C@@H](Oc2c(-c3ccc(O)c(O)c3)oc3cc(O)cc(O)c3c2=O)[C@H](O)[C@H](O)[C@H]1O [Quercitrin, quercitrin]	29211 ± 483	2.92e+12	31	32300	–	–	–	–
COc1cc(-c2oc3cc(O)cc(O)c3c(=O)c2O)ccc1O [Isorhamnetin, isorhamnetin]	36109 ± 1271	3.61e+12	30.8	32500	–	similar, but less pronounced, effect	–	–
C[C@@H]1O[C@@H](OC[C@H]2O[C@@H](Oc3c(-c4ccc(O)c(O)c4)oc4cc(O)cc(O)c4c3=O)[C@H](O)[C@@H](O)[C@@H]2O)[C@H](O)[C@H](O)[C@H]1O [Rutin, rutin]	45197 ± 465	4.52e+12	22	45500	–	–	–	–
O=c1c(-c2ccc(O)cc2)coc2cc(O)cc(O)c12 [Genistein, genistein]	22953 ± 435	2.3e+12	41	24400	–	similar, but less pronounced, effect	–	–

The remaining compounds from weak to strong by Kd [1], led by results:

Stern-Volmer constant (K SV) [1] [M⁻¹]	bimolecular quenching rate constant (K q) [1] [M⁻¹ s⁻¹]	Kd [1] [µM]	binding constant (K b) [1] [M⁻¹]	Increase in melting temperature (T m) of PDIA3 [2]	Effect on PDIA3 stability (T m) [2]	Inhibition of disulfide reductase (redox) activity [3]	Effect on disulfide reductase activity (in words) [3]	SMILES
24063 ± 265	2.41e+12	39	25600	increased more than three degrees	–	approximately 20%	some inhibitory effect	O=c1c(O)c(-c2ccc(O)cc2O)oc2cc(O)cc(O)c12 [Morin, morin]
28423 ± 982	2.84e+12	38.5	26000	increased more than three degrees	–	–	–	O=c1c(O)c(-c2ccc(O)cc2)oc2cc(O)cc(O)c12 [Kaempferol, kaempferol]
29761 ± 635	2.98e+12	34.2	29300	–	similar, but less pronounced, effect	approximately 20%	–	Oc1cc(O)c2cc(O)c(-c3ccc(O)c(O)c3)[o+]c2c1 [Cyanidin, cyanidin]
28462 ± 295	2.85e+12	33.2	30100	–	similar, but less pronounced, effect	–	–	COc1cc(O)c2c(=O)c(O)c(-c3ccc(O)c(O)c3)oc2c1 [Rhamnetin, rhamnetin]
31601 ± 484	3.16e+12	28.9	34600	–	–	–	–	O=c1cc(-c2ccc(O)c(O)c2)oc2cc(O[C@@H]3O[C@H](CO)[C@@H](O)[C@H](O)[C@H]3O)cc(O)c12 [Luteolin-7-glucoside, luteolin-7-glucoside]
33164 ± 542	3.32e+12	27.1	36700	increased more than three degrees	–	–	–	O=c1c(O)c(-c2ccc(O)c(O)c2)oc2cc(O)ccc12 [Fisetin, fisetin]
41110 ± 794	4.11e+12	21.9	45700	–	–	–	–	COc1c(-c2ccc(O)c(O)c2)oc2cc(O)cc(O)c2c1=O [3-O-Methyl-quercetin, 3-O-methyl quercetin]
43961 ± 673	4.4e+12	21.1	47300	–	–	–	–	O=c1cc(-c2ccc(O)cc2)oc2cc(O[C@@H]3O[C@H](CO)[C@@H](O)[C@H](O)[C@H]3O)cc(O)c12 [Apigenin-7-glucoside, apigenin-7-glucoside]
